Like-named read-outs stand apart in the source and are kept apart here.
Legend:
[1] = tested on: H1650; experiment: Non Small Cell Lung Cancer proliferation assay (Alamar Blue reduction), H1650; assay type: cell-based, human; details: for IC50 / inhibition at 10 µM: Homo sapiens; for inhibition at 10 µM: NCI-H1650, primary screening, read-out: PRIMARY HTS [%] H1650 (percentage inhibition); for inhibition at 10 µM / CONFIRMATION [%] 1650: 10 μM compound in 1% DMSO (v/v); for CONFIRMATION [%] 1650: percentage inhibition
In short: (§1)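 Human NSCLC cells were seeded at 250 cells/well with compound at a final 1% DMSO and treated for 48 hours at 37° C. 1% DMSO served as the high control.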

[2] = tested on: H3255; experiment: Non Small Cell Lung Cancer proliferation assay (Alamar Blue reduction), H3255; assay type: cell-based, human; details: for IC50 / inhibition at 10 µM: Homo sapiens; for inhibition at 10 µM: NCI-H3255, primary screening, read-out: PRIMARY HTS [%] H3255 (percentage inhibition); for inhibition at 10 µM / CONFIRMATION [%] 3255: 10 μM compound in 1% DMSO (v/v); for CONFIRMATION [%] 3255: percentage inhibition
In short: as §1

[3] = tested on: H1734; experiment: Non Small Cell Lung Cancer proliferation assay (Alamar Blue reduction), H1734; assay type: cell-based, human; details: Homo sapiens
In short: as §1

[4] = tested on: HPL1D (human peripheral lung epithelial) cell line; experiment: Cell proliferation / dose response (Alamar Blue), HPL1D; assay type: cell-based; details: read-out: IC50 HPL1D
Experimental: WI-38: human lung fibroblast cell line. […] WT: wildtype; WT*: over-expressed wildtype. Dose response studies against 34 compounds from the pyridazinone and phenylfuran-carboxamide class were conducted. […] In addition, Tarceva was included in these dose response studies. The dose response studies were done with the following standard procedure. […] The cells were incubated for 48 hours at 37 C to complete treatment, and then alamar blue was added for an additional 48 hours. Finally, alamar blue reduction was measured and the data was loaded into ORIS, our data screening acquisition platform.

[5] = tested on: H820; experiment: Dose response study (Alamar Blue), H820; assay type: cell-based; details: Homo sapiens, read-out: IC50 H820
Experimental: (§2) Dose response studies against 34 compounds from the pyridazinone and phenylfuran-carboxamide class were conducted. […] In addition, Tarceva was included in these dose response studies.
(§3) The dose response studies were done with the following standard procedure. First, the cells were counted and dispensed at 250 cells/well into 384-well microplates with compound. The cells were incubated for 48 hours at 37 C to complete treatment, and then alamar blue was added for an additional 48 hours. Finally, alamar blue reduction was measured and the data was loaded into ORIS, our data screening acquisition platform.

[6] = tested on: PC9; experiment: Dose response study (Alamar Blue), PC9; assay type: cell-based; details: Homo sapiens, read-out: IC50 PC9
Experimental: as §2, §3

[7] = tested on: A549; experiment: Dose response study (Alamar Blue), A549; assay type: cell-based; details: Homo sapiens, read-out: IC50 A549
Experimental: as §2, §3

[8] = tested on: H23; experiment: Dose response study (Alamar Blue), H23; assay type: cell-based; details: Homo sapiens, read-out: IC50 H23
Experimental: as §2, §3

[9] = tested on: H460; experiment: Dose response study (Alamar Blue), H460; assay type: cell-based; details: Homo sapiens, read-out: IC50 H460
Experimental: as §2, §3

[10] = tested on: H2122; experiment: Dose response study (Alamar Blue), H2122; assay type: cell-based; details: Homo sapiens, read-out: IC50 H2122
Experimental: as §2, §3

[11] = NCI-H1650, 48 h, H1650, 12 point doubling dilution 10 uM to 5 nM, 48 h treatment, alamar blue additional 48 h, read-out: IC50 H1650
[12] = NCI-H1650, dose response 10 M to 5 nM, IC50, read-out: Dose Response (uM) H1650
[13] = NCI-H3255, 48 h, H3255, 12 point doubling dilution 10 uM to 5 nM, 48 h treatment, alamar blue additional 48 h, read-out: IC50 H3255
[14] = NCI-H3255, dose response 10 M to 5 nM, IC50, read-out: Dose Response (uM) H3255
[15] = NCI-H1734, H1734, 12 point doubling dilution 10 uM to 5 nM, 48 h treatment, alamar blue additional 48 h, read-out: IC50 H1734
[16] = NCI-H1734, read-out: Dose Response (uM) H1734
[17] = HPL1D, 12 point doubling dilution 10 uM to 5 nM, 48 h treatment, alamar blue additional 48 h
[18] = NCI-H820, H820, 12 point doubling dilution 10 uM to 5 nM, 48 h treatment, alamar blue additional 48 h
[19] = PC-9, PC9, 12 point doubling dilution 10 uM to 5 nM, 48 h treatment, alamar blue additional 48 h
[20] = A549, 12 point doubling dilution 10 uM to 5 nM, 48 h treatment, alamar blue additional 48 h
[21] = NCI-H23, H23, 12 point doubling dilution 10 uM to 5 nM, 48 h treatment, alamar blue additional 48 h
[22] = NCI-H460, H460, 12 point doubling dilution 10 uM to 5 nM, 48 h treatment, alamar blue additional 48 h
[23] = NCI-H2122, H2122, 12 point doubling dilution 10 uM to 5 nM, 48 h treatment, alamar blue additional 48 h
[24] = NCI-H1650, phenylfuran-2-carboxamide SAR summary, read-out: IC50(uM) 1650
[25] = NCI-H3255, phenylfuran-2-carboxamide SAR summary, read-out: IC50(uM) 3255

Row | Structure (SMILES) | IC50 [1, 11] | IC50 [1, 12] | IC50 [2, 13] | IC50 [2, 14] | IC50 [3, 15] | IC50 [3, 16] | IC50 [4, 17] | IC50 [5, 18] | IC50 [6, 19] | IC50 [7, 20] | IC50 [8, 21] | IC50 [9, 22] | IC50 [10, 23] | IC50 [1, 24] | inhibition at 10 µM ([1]; H1650) | CONFIRMATION [%] 1650 [1] | IC50 [2, 25] | inhibition at 10 µM ([2]; H3255) | CONFIRMATION [%] 3255 [2] | further results
1 | O=c1c(Br)c(Br)cnn1-c1cccc(C(F)(F)F)c1 [compound 267072] | 2.09 µM | 0.54 µM | 1.64 µM | 1 µM | 3.19 µM | 0.51 µM | 0.51 µM | 0.82 µM | 2.59 µM | 3.42 µM | 0.84 µM | 2.76 µM | 4.61 µM |  |  |  |  |  |  | 
2 | Cc1ccc(-n2ncc(Cl)c(Cl)c2=O)cc1C [compound 257019] | 4.15 µM | 2.4 µM | 2.01 µM | 1.23 µM | 4.65 µM | 2.01 µM | 0.62 µM | 0.67 µM | 1.98 µM | 4.2 µM | 0.69 µM | 4.09 µM | 4.38 µM |  |  |  |  |  |  | 
3 | Cc1cccc(-n2ncc(Cl)c(Cl)c2=O)c1C [compound 257018] | 1.69 µM | 2.42 µM | 1.86 µM | 1.63 µM | 2.51 µM | 2.12 µM | 1.3 µM | 0.34 µM | 1.57 µM | 2.27 µM | 0.24 µM | 3.51 µM | 2.16 µM |  |  |  |  |  |  | 
4 | O=C(Nc1ccc(F)c(Cl)c1)c1ccc([N+](=O)[O-])o1 [compound 87200] | 7.49 µM |  | > 10 µM |  | > 10 µM |  | > 10 µM | > 10 µM | 8.67 µM | > 10 µM | 4.55 µM | > 10 µM | > 10 µM | 0.29 µM | 103% | 112% | 0.69 µM | 6% | 103% | 
5 | O=c1c(Cl)c(Cl)cnn1-c1ccc2c(c1)OCCO2 [compound 267068] | 2.26 µM | 2.33 µM | 1.23 µM | 1.2 µM | 2.83 µM | 2.12 µM | 0.42 µM | 0.32 µM | 0.88 µM | 1.93 µM | 0.29 µM | 1.97 µM | 1.59 µM |  |  |  |  |  |  | 
6 | O=C(Nc1ccc(Cl)cc1)c1ccc([N+](=O)[O-])o1 [compound 98698, 5-nitro-furan-2-carboxylic acid (4-chloro-phenyl)-amide] | 0.47 µM |  | 1.77 µM |  |  |  |  |  |  |  |  |  |  | 0.38 µM | 101% | 133% | 0.95 µM | 20% | 118% | IC50 ([3]; NCI-H1734, 48 h, H1734, 12 point doubling dilution 10 uM to 5 nM, 48 h treatment, alamar blue additional 48 h, read-out: IC50 H1734): 3.47 µM; IC50 ([4]; 48 h): > 10 µM; IC50 ([5]; NCI-H820, 48 h): 1.83 µM; IC50 ([6]; PC-9, 48 h): 1.58 µM; IC50 ([7]; A549, 48 h): 1.33 µM; IC50 ([8]; NCI-H23, 48 h): 0.6 µM; IC50 ([9]; NCI-H460, 48 h): 1.62 µM; IC50 ([10]; NCI-H2122, 48 h): 3.09 µM

From US20100210649A1, “PYRIDAZINONES AND FURAN-CONTAINING COMPOUNDS” (Sloan-Kettering Institute for Cancer Research, priority 2006, published 2010)
